In PubChem BioAssay (NCI):
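Test compounds were applied to cells in 96-well plates for 48 hours at 5 doses. Abbreviation: GI50, concentration required for 50% inhibition of growth. TGI is the concentration that stops growth completely.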

Tests used:
Test in all cases: NCI-60 cell line screen, 48 h
786-0 renal = test system: 786-0 renal
DU-145 prostate = test system: DU-145 prostate
EKVX NSCLC = test system: EKVX NSCLC
HCC-2998 colon = test system: HCC-2998 colon
NCI-H226 lung = test system: NCI-H226 lung
NCI-H23 lung = test system: NCI-H23 lung
OVCAR-4 ovarian = test system: OVCAR-4 ovarian
OVCAR-8 ovarian = test system: OVCAR-8 ovarian
RPMI-8226 leukemia = test system: RPMI-8226 leukemia
SW-620 colon = test system: SW-620 colon

## Cn1cnc([N+](=O)[O-])c1Sc1ncn[nH]1
786-0 renal
  GI50: > 100 µM
  TGI: > 100 µM
DU-145 prostate
  GI50: 63.4 µM
  TGI: > 100 µM
EKVX NSCLC
  GI50: > 100 µM
  TGI: > 100 µM
HCC-2998 colon
  GI50: > 100 µM
  TGI: > 100 µM
NCI-H226 lung
  GI50: > 100 µM
  TGI: > 100 µM
NCI-H23 lung
  GI50: 99.5 µM
  TGI: > 100 µM
OVCAR-4 ovarian
  GI50: 72 µM
  TGI: > 100 µM
OVCAR-8 ovarian
  GI50: > 100 µM
  TGI: > 100 µM
RPMI-8226 leukemia
  GI50: 43.9 µM
  TGI: > 100 µM
SW-620 colon
  GI50: 61.1 µM
  TGI: > 100 µM

## CC(Br)C(=O)Nc1ccc(C(=O)O)c(O)c1 (stereo unspecified)
786-0 renal
  TGI: > 100 µM
DU-145 prostate
  TGI: > 100 µM
EKVX NSCLC
  TGI: > 100 µM
NCI-H226 lung
  TGI: > 100 µM
NCI-H23 lung
  TGI: 68.9 µM
OVCAR-4 ovarian
  TGI: > 100 µM
OVCAR-8 ovarian
  TGI: > 100 µM
RPMI-8226 leukemia
  TGI: > 100 µM
SW-620 colon
  TGI: > 100 µM

## C=C1[C@@H]([C@@]2(C)C=CC(=O)C(C)(C)[C@@H]2CC(=O)OC)CC[C@@]2(C)C(c3ccoc3)OC(=O)[C@H]3O[C@]132 (stereo partly specified)
786-0 renal
  TGI: > 100 µM
DU-145 prostate
  TGI: > 100 µM
EKVX NSCLC
  TGI: > 100 µM
HCC-2998 colon
  TGI: > 100 µM
NCI-H226 lung
  TGI: > 100 µM
NCI-H23 lung
  TGI: > 100 µM
OVCAR-4 ovarian
  TGI: > 100 µM
OVCAR-8 ovarian
  TGI: > 100 µM
SW-620 colon
  TGI: > 100 µM

## CCn1c2ccccc2c2cc(C(O)c3cccc4ncccc34)ccc21 (stereo unspecified)
786-0 renal
  GI50: 0.0559 µM
  TGI: 7.29 µM
DU-145 prostate
  GI50: 0.0828 µM
  TGI: 4.78 µM
EKVX NSCLC
  GI50: 0.0864 µM
  TGI: > 100 µM
HCC-2998 colon
  GI50: 0.257 µM
  TGI: 15.7 µM
NCI-H226 lung
  GI50: 0.831 µM
  TGI: 46.8 µM
NCI-H23 lung
  GI50: 0.0958 µM
  TGI: 19.5 µM
OVCAR-4 ovarian
  GI50: 0.318 µM
  TGI: 87.3 µM
OVCAR-8 ovarian
  GI50: 0.122 µM
  TGI: > 69.4 µM
RPMI-8226 leukemia
  GI50: 0.0724 µM
  TGI: 7.85 µM
SW-620 colon
  GI50: 0.0399 µM
  TGI: > 100 µM

## COc1ccc(C2=CC(c3ccc(OC)c(OC)c3)c3c(c4ccccc4oc3=O)O2)cc1OC (stereo unspecified)
786-0 renal
  GI50: 1.15 µM
  TGI: 11.7 µM
DU-145 prostate
  GI50: 1.73 µM
  TGI: > 30.7 µM
EKVX NSCLC
  GI50: 1.52 µM
  TGI: > 100 µM
HCC-2998 colon
  GI50: 1.37 µM
  TGI: 4.97 µM
NCI-H226 lung
  GI50: > 21.1 µM
  TGI: > 100 µM
NCI-H23 lung
  GI50: 4.91 µM
  TGI: > 100 µM
OVCAR-4 ovarian
  GI50: 3.85 µM
  TGI: > 100 µM
OVCAR-8 ovarian
  GI50: 4.9 µM
  TGI: > 100 µM
RPMI-8226 leukemia
  GI50: 1.32 µM
  TGI: 16.7 µM
SW-620 colon
  GI50: 1.19 µM
  TGI: > 100 µM

## CCOC(=O)c1c(C)c(C)n2c1NC(=O)C2
786-0 renal
  TGI: 98.9 µM
DU-145 prostate
  TGI: 64.3 µM
EKVX NSCLC
  TGI: > 100 µM
HCC-2998 colon
  TGI: > 100 µM
NCI-H226 lung
  TGI: > 100 µM
NCI-H23 lung
  TGI: > 68.5 µM
OVCAR-4 ovarian
  TGI: > 100 µM
OVCAR-8 ovarian
  TGI: > 100 µM
RPMI-8226 leukemia
  TGI: > 100 µM
SW-620 colon
  TGI: > 100 µM

## COc1ccc(Nc2c3ccccc3nc3[nH]c4ccccc4c23)cc1
786-0 renal
  GI50: 11.4 µM
  TGI: 49.2 µM
DU-145 prostate
  GI50: 6.47 µM
  TGI: 33.9 µM
EKVX NSCLC
  GI50: 10.9 µM
  TGI: > 50 µM
NCI-H226 lung
  GI50: 7.65 µM
  TGI: > 50 µM
NCI-H23 lung
  GI50: > 50 µM
  TGI: > 50 µM
OVCAR-8 ovarian
  GI50: 30.2 µM
  TGI: > 50 µM
RPMI-8226 leukemia
  GI50: 2.33 µM
  TGI: 33.4 µM
SW-620 colon
  GI50: 9.89 µM
  TGI: > 50 µM

## C=CCCCc1ccc(C(O)CCCCCCCCCCCC)o1 (stereo unspecified)
786-0 renal
  GI50: 15.2 µM
  TGI: 28.5 µM
DU-145 prostate
  GI50: 19 µM
  TGI: 35.4 µM
EKVX NSCLC
  GI50: 20.1 µM
  TGI: 37.5 µM
HCC-2998 colon
  GI50: 22.1 µM
  TGI: 55 µM
NCI-H226 lung
  GI50: 17.8 µM
  TGI: 34.3 µM
NCI-H23 lung
  GI50: 22.3 µM
  TGI: 52.5 µM
OVCAR-8 ovarian
  GI50: 20.6 µM
  TGI: 44.9 µM
RPMI-8226 leukemia
  GI50: 19.2 µM
  TGI: 44.7 µM
SW-620 colon
  GI50: 22.8 µM
  TGI: 62 µM

## Cc1c(Sc2ccccc2)[n+](=O)c2cc(Cl)c(Cl)cc2n1[O-]
786-0 renal
  GI50: 22 µM
  TGI: 43.4 µM
DU-145 prostate
  GI50: 23.4 µM
  TGI: 44.8 µM
EKVX NSCLC
  GI50: > 100 µM
  TGI: > 100 µM
HCC-2998 colon
  GI50: 34.1 µM
  TGI: > 100 µM
NCI-H226 lung
  GI50: > 100 µM
  TGI: > 100 µM
NCI-H23 lung
  GI50: 33.2 µM
  TGI: > 100 µM
OVCAR-4 ovarian
  GI50: 85.3 µM
  TGI: > 100 µM
OVCAR-8 ovarian
  GI50: 25.6 µM
  TGI: > 100 µM
RPMI-8226 leukemia
  GI50: 51.7 µM
  TGI: > 100 µM
SW-620 colon
  GI50: 29.5 µM
  TGI: 96.1 µM

## COc1cc(/C=C/C(=O)c2cccnc2Nc2ccc(F)cc2)cc(OC)c1OC
786-0 renal
  GI50: 3.9 µM
  TGI: 13 µM
DU-145 prostate
  GI50: 3.32 µM
  TGI: 12.4 µM
EKVX NSCLC
  GI50: 3.94 µM
  TGI: > 100 µM
HCC-2998 colon
  GI50: 1.78 µM
  TGI: 3.45 µM
NCI-H226 lung
  GI50: 1.79 µM
  TGI: 3.78 µM
NCI-H23 lung
  GI50: 2.34 µM
  TGI: 7.77 µM
OVCAR-4 ovarian
  GI50: 3.81 µM
  TGI: 19 µM
OVCAR-8 ovarian
  GI50: 2.69 µM
  TGI: 13.4 µM
RPMI-8226 leukemia
  GI50: 2.43 µM
  TGI: 8.07 µM
SW-620 colon
  GI50: 3.3 µM
  TGI: 24.1 µM

## Cc1ccc(-c2nc(N3CCCNCC3)c3oc(-c4ccc(C)cc4)nc3n2)cc1
786-0 renal
  GI50: 1.76 µM
  TGI: 3.25 µM
DU-145 prostate
  GI50: 1.89 µM
  TGI: 3.3 µM
EKVX NSCLC
  GI50: 4.09 µM
  TGI: > 100 µM
HCC-2998 colon
  GI50: 32.3 µM
  TGI: > 100 µM
NCI-H23 lung
  GI50: 19.9 µM
  TGI: 88.2 µM
OVCAR-4 ovarian
  GI50: 2.11 µM
  TGI: 4.67 µM
OVCAR-8 ovarian
  GI50: 2.11 µM
  TGI: 4.22 µM
RPMI-8226 leukemia
  GI50: 1.89 µM
  TGI: 4.22 µM
SW-620 colon
  GI50: 1.66 µM
  TGI: 3.2 µM

## C/C=C(\C)C(=O)N[C@H]1C(O)C[C@]2(C)C3CC[C@@]4(C)C(CC[C@@H]4C(C)N(C)C)C3CCC2C1O (stereo partly specified)
786-0 renal
  GI50: 4.95 µM
  TGI: 10.6 µM
DU-145 prostate
  GI50: 12.6 µM
  TGI: > 83.3 µM
EKVX NSCLC
  GI50: 9.38 µM
  TGI: > 50.9 µM
HCC-2998 colon
  GI50: 4.16 µM
  TGI: 9.21 µM
NCI-H226 lung
  GI50: 12.1 µM
  TGI: > 70.2 µM
NCI-H23 lung
  GI50: 13.1 µM
  TGI: 49.7 µM
OVCAR-4 ovarian
  GI50: 8.52 µM
  TGI: > 100 µM
OVCAR-8 ovarian
  GI50: 28.9 µM
  TGI: > 90.8 µM
RPMI-8226 leukemia
  GI50: 5.95 µM
  TGI: 25.5 µM
SW-620 colon
  GI50: 2.31 µM
  TGI: 6.06 µM

## CCN(CC)CCSCCCNc1c2ccc(Cl)cc2nc2ccc(OC)cc12
786-0 renal
  GI50: 1.12 µM
  TGI: 2.43 µM
DU-145 prostate
  GI50: 0.633 µM
  TGI: 3.01 µM
EKVX NSCLC
  GI50: 1.73 µM
  TGI: 4.72 µM
HCC-2998 colon
  GI50: 1.02 µM
  TGI: 2.42 µM
NCI-H23 lung
  GI50: 1.32 µM
  TGI: 3.28 µM
OVCAR-4 ovarian
  GI50: 0.756 µM
  TGI: 3.03 µM
OVCAR-8 ovarian
  GI50: 1 µM
  TGI: 3.54 µM
RPMI-8226 leukemia
  GI50: 1.3 µM
  TGI: 4.78 µM
SW-620 colon
  GI50: 0.511 µM
  TGI: 3.33 µM

## CN1C(Cl)=NS(=O)(=O)c2ccccc21
786-0 renal
  TGI: > 100 µM
DU-145 prostate
  TGI: > 100 µM
EKVX NSCLC
  TGI: > 100 µM
HCC-2998 colon
  TGI: > 100 µM
NCI-H226 lung
  TGI: > 100 µM
NCI-H23 lung
  TGI: > 100 µM
OVCAR-4 ovarian
  TGI: > 100 µM
OVCAR-8 ovarian
  TGI: > 100 µM
SW-620 colon
  TGI: > 100 µM

## O=C1OC(CN2CCOCC2)CN1/N=C/c1ccc([N+](=O)[O-])o1 (stereo unspecified)
786-0 renal
  TGI: > 100 µM
DU-145 prostate
  TGI: > 100 µM
EKVX NSCLC
  TGI: > 100 µM
NCI-H226 lung
  TGI: > 100 µM
NCI-H23 lung
  TGI: 53.9 µM
OVCAR-4 ovarian
  TGI: > 100 µM
OVCAR-8 ovarian
  TGI: > 100 µM
RPMI-8226 leukemia
  TGI: > 100 µM
SW-620 colon
  TGI: > 100 µM
